Experimental data taken from patent publication US20200113181A1, “HERBICIDAL COMPOUNDS” (SYNGENTA PARTICIPATIONS AG, priority 2016, published 2020).

What was measured:
Assay type in all cases: in vivo
Avena fatua (AVEFA) = test: Glasshouse herbicide test, pre- and post-emergence, Avena fatua; details: 250 g/h, evaluated after 13 days; for AVEFA POST, percentage damage caused to the plant (five point scale): post-emergence; for AVEFA PRE, percentage damage caused to the plant (five point scale): pre-emergence
Summary of the method: (§1)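 Each compound is sprayed at 250 g/h on pots either 1 or 8 days after sowing (pre- and post-emergence respectively). Growth under controlled glasshouse conditions, 24/16 °C day/night and 65% humidity, continues for 13 days before damage is rated on a five-point scale.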

Setaria faberi (SETFA) = test: Glasshouse herbicide test, pre- and post-emergence, Setaria faberi; details: 250 g/h, evaluated after 13 days; for SETFA POST, percentage damage caused to the plant (five point scale): post-emergence; for SETFA PRE, percentage damage caused to the plant (five point scale): pre-emergence
Summary of the method: as §1

[1] = tested on: wheat plants (Triticum aestivum (TRZAW)); test: Crop phytotoxicity, wheat plants treated post-emergence
Protocol: (§2) Seeds of a variety of test species are sown in standard soil in pots (Lolium perenne (LOLPE), Setaria faberi (SETFA), Alopecurus myosuroides (ALOMY), Echinochloa crus-galli (ECHCG), Avena fatua (AVEFA)). After cultivation for one day (pre-emergence) or after 8 days cultivation (post-emergence) under controlled conditions in a glasshouse (at 24/16° C., day/night; 14 hours light; 65% humidity), the plants are sprayed with an aqueous spray solution derived from the formulation of the technical active ingredient in acetone/water (50:50) solution containing 0.5% Tween 20 (polyoxyethelyene sorbitan monolaurate, CAS RN 9005-64-5). Compounds are applied at […]. The test plants are then grown in a glasshouse under controlled conditions in a glasshouse (at 24/16° C., day/night; 14 hours light; 65% humidity) and watered twice daily. After 13 days for pre and post-emergence, the test is evaluated for the percentage damage caused to the plant. The biological activities are shown in the following table on a five point scale (5=80-100%; 4=60-79%; 3=40-59%; 2=20-39%; 1=0-19%).
Using procedures outlines above, wheat plants (Triticum aestivum (TRZAW) are treated post-emergence with compound 1.2 of the present invention or compound A-18 from WO 2013/079708. The results outlined in Table B2 below show % phytotoxicity observed and that compound 1.2 of the present invention is less damaging to wheat compared to compound A-18 disclosed in WO2013/079708.

Lolium perenne (LOLPE) = test: Glasshouse herbicide test, pre- and post-emergence, Lolium perenne; details: 250 g/h, evaluated after 13 days; for LOLPE POST, percentage damage caused to the plant (five point scale): post-emergence; for LOLPE PRE, percentage damage caused to the plant (five point scale): pre-emergence
Summary of the method: as §1

[2] = tested on: Echinochloa crus-galli (ECHCG); test: Glasshouse herbicide test, pre- and post-emergence, Echinochloa crus-galli; details: 250 g/h, evaluated after 13 days; for ECHCG POST, percentage damage caused to the plant (five point scale): post-emergence; for ECHCG PRE, percentage damage caused to the plant (five point scale): pre-emergence
Summary of the method: as §1

[3] = tested on: Alopecurus myosuroides (ALOMY); test: Glasshouse herbicide test, pre- and post-emergence, Alopecurus myosuroides; details: 250 g/h, evaluated after 13 days; for ALOMY PRE, percentage damage caused to the plant (five point scale): pre-emergence
Summary of the method: as §1

[4] = tested on: soybean plants (Glycine max (GLYMX)); test: Crop phytotoxicity, soybean plants treated post-emergence
Protocol: [The procedure below names another organism; the source says it served here with some conditions changed.] as §2

SMILES | AVEFA POST, percentage damage caused to the plant (five point scale) (Avena fatua (AVEFA)) | AVEFA PRE, percentage damage caused to the plant (five point scale) (Avena fatua (AVEFA)) | SETFA POST, percentage damage caused to the plant (five point scale) (Setaria faberi (SETFA)) | SETFA PRE, percentage damage caused to the plant (five point scale) (Setaria faberi (SETFA)) | TRZAW % Phyto ([1]; rate 4 g/ha) [%] | TRZAW % Phyto ([1]; rate 16 g/ha) [%] | TRZAW % Phyto ([1]; rate 63 g/ha) [%] | LOLPE POST, percentage damage caused to the plant (five point scale) (Lolium perenne (LOLPE)) | LOLPE PRE, percentage damage caused to the plant (five point scale) (Lolium perenne (LOLPE)) | ECHCG POST, percentage damage caused to the plant (five point scale) [2] | ECHCG PRE, percentage damage caused to the plant (five point scale) [2] | ALOMY POST, percentage damage caused to the plant (five point scale) ([3]; post-emergence) | ALOMY PRE, percentage damage caused to the plant (five point scale) [3] | GLYMX % Phyto ([4]; rate 15 g/ha) [%] | GLYMX % Phyto ([4]; rate 30 g/ha) [%] | GLYMX % Phyto ([4]; rate 60 g/ha) [%]
CC#Cc1ccc(C2C(=O)[C@@H]3[C@H](C2=O)[C@H]2CC[C@@H]3O2)c(OC)c1 (some centres unmarked) [Compound 1.2, 4-[2-methoxy-4-(prop-1-yn-1-yl)phenyl]-10-oxatricyclo[5.2.1.0^2,6]decane-3,5-dione] | 5 (5=80-100%) | 5 (5=80-100%) | 5 (5=80-100%) | 5 (5=80-100%) | 20 | 70 | 60 | 5 (5=80-100%) | 5 (5=80-100%) | 5 (5=80-100%) | 5 (5=80-100%) |  |  |  |  | 
CC#Cc1ccc(C2C(=O)[C@@H]3[C@@H]4O[C@@H](C[C@H]4CC)[C@@H]3C2=O)c(OC)c1 (some centres unmarked) [Compound 1.23] | 5 (5=80-100%) | 5 (5=80-100%) | 5 (5=80-100%) | 5 (5=80-100%) |  |  |  | 5 (5=80-100%) | 5 (5=80-100%) | 5 (5=80-100%) | 5 (5=80-100%) | 5 (5=80-100%) | 5 (5=80-100%) |  |  | 
CC#Cc1ccc(C2C(=O)[C@@H]3[C@@H]4O[C@@H](C[C@H]4CC)[C@@H]3C2=O)c(OC)c1 (some centres unmarked) [Compound 1.24] | 5 (5=80-100%) |  |  | 5 (5=80-100%) |  |  |  |  | 5 (5=80-100%) |  | 5 (5=80-100%) |  | 5 (5=80-100%) |  |  | 
CC#Cc1cc(C)c(C2C(=O)[C@@H]3[C@H](C2=O)[C@H]2CC[C@@H]3O2)c(C)c1 (some centres unmarked) [Compound A-18, reference compound] |  |  |  |  | 60 | 100 | 100 |  |  |  |  |  |  | 40 | 60 | 80
